Test results: US20210161135A1, “WEED CONTROL FROM APPLICATIONS OF PYRIDINE CARBOXYLIC ACID HERBICIDES AND 4-HYDROXYPHENYL-PYRUVATE DIOXYGENASE (HPPD) INHIBITORS” (Dow AgroSciences LLC, priority 2018, published 2021)

Key:
Assay in all cases: Postemergence herbicidal activity, greenhouse, visual injury after 20-22 d
Type in all cases: in vivo
[1] = test system: grain sorghum (Sorghum vulgare, SORVU); conditions: two trials
Method: (§1) Seeds of the desired test plant species were planted in Sun Gro MetroMix® 306 planting mixture, which typically has a pH of 6.0 to 6.8 and an organic matter content of about 30 percent, in plastic pots with a surface area of 103.2 square centimeters (cm^2). When required to ensure good germination and healthy plants, a fungicide treatment and/or other chemical or physical treatment was applied. The plants were grown for 7-36 days (d) in a greenhouse with an approximate 14-hour (h) photoperiod which was maintained at about 23° C. during the day and 22° C. during the night. Nutrients and water were added on a regular basis and supplemental lighting was provided with overhead metal halide 1000-Watt lamps as necessary. The plants were employed for testing when they reached the second or third true leaf stage.
(§2) An emulsifiable concentrate (EC) formulation containing Compound 1 at 100 gai/L was prepared by combining Compound 1 with 1-butyl-2-pyrrolidinone (Tamisolve NxG; 360.5 g/L), benzyl acetate (544.6 g/L) and Agnique MBL 520L surfactant (52.9 g/L). […] The concentrated stock solutions were diluted with an aqueous mixture of 1.5% v/v of Agri-dex crop oil concentrate to provide the appropriate application rates. Compound requirements are based upon a 12 milliliter (mL) application volume at a rate of 187 liters per hectare (L/ha). Spray solutions of the experimental compound mixtures were prepared by adding the stock solutions to the appropriate amount of dilution solution to form a 12 mL spray solution in two-way combinations. Formulated compounds were applied to the plant material with an overhead Mandel track sprayer equipped with 8002E nozzles calibrated to deliver 187 L/ha over an application area of 0.503 square meters (m^2) at a spray height of […] above average plant canopy. Control plants were sprayed in the same manner with the solvent blank. Application rates for component (a) are in g ai/ha, and application rates for component (b) are in g ai/ha.
(§3) The treated plants and control plants were placed in a greenhouse as described above and watered by sub-irrigation to prevent wash-off of the test compounds. After 20-22 d, the condition of the test plants as compared with that of the control plants was determined visually and scored on a scale of 0 to 100 percent where 0 corresponds to no injury and 100 corresponds to complete kill. […] The Colby method was used to determine the herbicidal effects expected from the mixtures.

[2] = test system: poinsettia (Euphorbia heterophylla, EPHHL)
Method: as §1, §2, §3

[3] = test system: wild buckwheat (Polygonum convolvulus, POLCO)
Method: as §1, §2, §3

[4] = test system: spring rape (Brassica napus, BRSNN)
Method: as §1, §2, §3

[5] = test system: giant foxtail (Setaria faberi, SETFA)
Method: as §1, §2, §3

[6] = test system: common chickweed (Stellaria media, STEME); conditions: two trials
Method: as §1, §2, §3

[7] = test system: soybean (Glycine max, GLXMA); conditions: two trials
Method: as §1, §2, §3

[8] = test system: velvetleaf (Abutilon theophrasti, ABUTH)
Method: as §1, §2, §3

[9] = test system: thistle (Cirsium arvense CIRAR)
Method: as §1, §2, §3

[10] = test system: large crabgrass (Digitaria sanguinalis, DIGSA); conditions: two trials
Method: as §1, §2, §3

[11] = test system: wild oat (Avena fatua, AVEFA); conditions: two trials
Method: as §1, §2, §3

[12] = test system: sunflower (Helianthus annuus, HELAN); conditions: two trials
Method: as §1, §2, §3

maize (Zea mays, ZEAMX) = conditions: two trials
Method: as §1, §2, §3

[13] = test system: common lambsquarters (Chenopodium album L., CHEAL)
Method: as §1, §2, §3

[14] = test system: wild pansy (Viola tricolor, VIOTR)
Method: as §1, §2, §3

[15] = test system: pigweed (Amaranthus retroflexus, AMARE); conditions: two trials
Method: as §1, §2, §3

[16] = test system: barnyardgrass (Echinochloa crus-galli, ECHCG); conditions: two trials
Method: as §1, §2, §3

[17] = test system: winter wheat (Triticum aestivum, TRZAW); conditions: two trials
Method: as §1, §2, §3

[18] = test system: ivyleaf morningglory (Ipomoea hederacea, IPOHE); conditions: two trials
Method: as §1, §2, §3

[19] = test system: kochia (Kochia scoparia, KCHSC)
Method: as §1, §2, §3

[20] = test system: rice (Oryza sativa, ORYSA); conditions: two trials
Method: as §1, §2, §3

[21] = test system: winter rape (Brassica napus, BRSNW); conditions: two trials
Method: as §1, §2, §3

[22] = Compound 1 5 g ai/ha alone, Tables 4-5
[23] = Compound 1 5 g ai/ha alone, two trials
[24] = Compound 1 10 g ai/ha alone, Tables 4-5
[25] = Compound 1 10 g ai/ha alone, two trials
[26] = HPPD inhibitor 35 g ai/ha alone
[27] = HPPD inhibitor 35 g ai/ha alone, two trials

## Nc1c(F)c(-c2ccc3cc[nH]c3c2F)nc(C(=O)O)c1Cl [Compound 1]
[1]; Compound 1 5 g ai/ha alone
  Effect (% visual injury), Obs: 0%
[1]; Compound 1 10 g ai/ha alone
  Effect (% visual injury), Obs: 50%
[2]; [22]
  Effect (% visual injury), Obs: 75%
[2]; [23]
  Effect (% visual injury), Obs: 86%
[2]; [24]
  Effect (% visual injury), Obs: 100%
[2]; [25]
  Effect (% visual injury), Obs: 99%
[3]; [22]
  Effect (% visual injury), Obs: 40%
[3]; [23]
  Effect (% visual injury), Obs: 53%
[3]; [24]
  Effect (% visual injury), Obs: 40%
[3]; [25]
  Effect (% visual injury), Obs: 58%
[4]; [22]
  Effect (% visual injury), Obs: 50%
[4]; [23]
  Effect (% visual injury), Obs: 50%
[4]; [24]
  Effect (% visual injury), Obs: 80%
[4]; [25]
  Effect (% visual injury), Obs: 80%
[5]; [22]
  Effect (% visual injury), Obs: 50%
[5]; [23]
  Effect (% visual injury), Obs: 30%
[5]; [24]
  Effect (% visual injury), Obs: 75%
[5]; [25]
  Effect (% visual injury), Obs: 63%
[6]; Compound 1 5 g ai/ha alone
  Effect (% visual injury), Obs: 70%
[6]; Compound 1 10 g ai/ha alone
  Effect (% visual injury), Obs: 70%
[7]; Compound 1 5 g ai/ha alone
  Effect (% visual injury), Obs: 95%
[7]; Compound 1 10 g ai/ha alone
  Effect (% visual injury), Obs: 100%
[8]; [22]
  Effect (% visual injury), Obs: 50%
[8]; [23]
  Effect (% visual injury), Obs: 50%
[8]; [24]
  Effect (% visual injury), Obs: 50%
[8]; [25]
  Effect (% visual injury), Obs: 55%
[9]; [22]
  Effect (% visual injury), Obs: 50%
[9]; [23]
  Effect (% visual injury), Obs: 50%
[9]; [24]
  Effect (% visual injury), Obs: 60%
[9]; [25]
  Effect (% visual injury), Obs: 60%
[10]; Compound 1 5 g ai/ha alone
  Effect (% visual injury), Obs: 0%
[10]; Compound 1 10 g ai/ha alone
  Effect (% visual injury), Obs: 10%
[11]; Compound 1 5 g ai/ha alone
  Effect (% visual injury), Obs: 0%
[11]; Compound 1 10 g ai/ha alone
  Effect (% visual injury), Obs: 0%
[12]; Compound 1 5 g ai/ha alone
  Effect (% visual injury), Obs: 90%
[12]; Compound 1 10 g ai/ha alone
  Effect (% visual injury), Obs: 90%
Maize (Zea mays, ZEAMX); Compound 1 5 g ai/ha alone
  Effect (% visual injury), Obs: 0%
Maize (Zea mays, ZEAMX); Compound 1 10 g ai/ha alone
  Effect (% visual injury), Obs: 0%
[13]; [22]
  Effect (% visual injury), Obs: 90%
[13]; [23]
  Effect (% visual injury), Obs: 90%
[13]; [24]
  Effect (% visual injury), Obs: 95%
[13]; [25]
  Effect (% visual injury), Obs: 98%
[14]; [22]
  Effect (% visual injury), Obs: 10%
[14]; [23]
  Effect (% visual injury), Obs: 8%
[14]; [24]
  Effect (% visual injury), Obs: 15%
[14]; [25]
  Effect (% visual injury), Obs: 13%
[15]; Compound 1 5 g ai/ha alone
  Effect (% visual injury), Obs: 75%
[15]; Compound 1 10 g ai/ha alone
  Effect (% visual injury), Obs: 97%
[16]; Compound 1 5 g ai/ha alone
  Effect (% visual injury), Obs: 20%
[16]; Compound 1 10 g ai/ha alone
  Effect (% visual injury), Obs: 60%
[17]; Compound 1 5 g ai/ha alone
  Effect (% visual injury), Obs: 0%
[17]; Compound 1 10 g ai/ha alone
  Effect (% visual injury), Obs: 0%
[18]; Compound 1 5 g ai/ha alone
  Effect (% visual injury), Obs: 10%
[18]; Compound 1 10 g ai/ha alone
  Effect (% visual injury), Obs: 10%
[19]; [22]
  Effect (% visual injury), Obs: 65%
[19]; [23]
  Effect (% visual injury), Obs: 63%
[19]; [24]
  Effect (% visual injury), Obs: 75%
[19]; [25]
  Effect (% visual injury), Obs: 68%
[20]; Compound 1 5 g ai/ha alone
  Effect (% visual injury), Obs: 0%
[20]; Compound 1 10 g ai/ha alone
  Effect (% visual injury), Obs: 10%
[21]; Compound 1 5 g ai/ha alone
  Effect (% visual injury), Obs: 40%
[21]; Compound 1 10 g ai/ha alone
  Effect (% visual injury), Obs: 45%

## CS(=O)(=O)c1ccc(C(=O)C2=C(Sc3ccccc3)C3CCC(C3)C2=O)c(Cl)c1 (stereo not drawn) [Benzobicyclon, 3-[2-chloro-4-(methylsulfonyl)benzoyl]-4-(phenylthio)bicyclo[3.2.1]oct-3-en-2-one]
[2]; Benzobicyclon 50 g ai/ha alone
  Effect (% visual injury), Obs: 5%
[3]; Benzobicyclon 50 g ai/ha alone
  Effect (% visual injury), Obs: 0%
[4]; Benzobicyclon 50 g ai/ha alone
  Effect (% visual injury), Obs: 0%
[5]; Benzobicyclon 50 g ai/ha alone
  Effect (% visual injury), Obs: 0%
[8]; Benzobicyclon 50 g ai/ha alone
  Effect (% visual injury), Obs: 25%
[9]; Benzobicyclon 50 g ai/ha alone
  Effect (% visual injury), Obs: 20%
[13]; Benzobicyclon 50 g ai/ha alone
  Effect (% visual injury), Obs: 100%
[14]; Benzobicyclon 50 g ai/ha alone
  Effect (% visual injury), Obs: 10%
[19]; Benzobicyclon 50 g ai/ha alone
  Effect (% visual injury), Obs: 10%

## CS(=O)(=O)c1ccc(C(=O)C2C(=O)CCCC2=O)c([N+](=O)[O-])c1 [Mesotrione, 2-[4-(methylsulfonyl)-2-nitrobenzoyl]-1,3-cyclohexanedione]
[1]; [26]
  Effect (% visual injury), Obs: 0%
[2]; [27]
  Effect (% visual injury), Obs: 20%
[3]; [27]
  Effect (% visual injury), Obs: 48%
[4]; [27]
  Effect (% visual injury), Obs: 100%
[5]; [27]
  Effect (% visual injury), Obs: 0%
[6]; [26]
  Effect (% visual injury), Obs: 60%
[7]; [26]
  Effect (% visual injury), Obs: 70%
[8]; [27]
  Effect (% visual injury), Obs: 88%
[9]; [27]
  Effect (% visual injury), Obs: 100%
[10]; [26]
  Effect (% visual injury), Obs: 20%
[12]; [26]
  Effect (% visual injury), Obs: 93%
Maize (Zea mays, ZEAMX); [26]
  Effect (% visual injury), Obs: 0%
[13]; [27]
  Effect (% visual injury), Obs: 100%
[14]; [27]
  Effect (% visual injury), Obs: 58%
[15]; [26]
  Effect (% visual injury), Obs: 30%
[16]; [26]
  Effect (% visual injury), Obs: 10%
[18]; [26]
  Effect (% visual injury), Obs: 70%
[19]; [27]
  Effect (% visual injury), Obs: 70%
[21]; [26]
  Effect (% visual injury), Obs: 60%
